By pEC50 is commonly meant −log10 of the EC50, conventionally taken in molar units.

pEC50: −log10 of the molar value.

For this assay, the system named is A/Paris/1170/2007 (H1N1, Y274). Briefly: microbe, parasite or virus in culture. The class given is cell-based. To be noted: Influenza A virus, H1N1, 72 h, read-out: EC50, 50% reduction of the average plaque diameter.

For `C=CCC1=C(C(=O)O)O[C@@H]([C@H](O)[C@H](O)CO)[C@H](NC(C)=O)[C@H]1O` [Compound 7, 5-Acetamido-2,6-anhydro-3,5-dideoxy-3-C-(prop-2′-enyl)-D-glycero-D-galacto-non-2-en-onic acid], the pEC50 is 2.66.

As to `CC(=O)NC1C(O)C(CC=Cc2ccc(C)cc2)=C(C(=O)O)OC1C(O)C(O)CO` (stereo not drawn) [Compound 9d], the pEC50 was 4.40.

In the case of `CC(=O)N[C@H]1[C@H]([C@H](O)[C@H](O)CO)OC(C(=O)O)=C[C@@H]1O` [Neu5Ac2en, reference compound], the pEC50 is 5.10.

For the origin of these results see US20120202877A1 (priority 2009, published 2012).
